{"source": "the NIST ThermoML archive (doi:10.1016/j.tca.2009.12.017)", "settings": "Crystal; Boetius hot stage apparatus", "note": "± gives the expanded uncertainty stated by the source.", "data": [{"smiles": "CNC(=O)[C@H](Cc1cnc[nH]1)NC(C)=O", "note": "[N-acetyl-N'-methyl-L-alpha-histidinamide]", "values": [{"measurement": "Normal melting temperature", "result": "-11 ± 6", "unit": "°C"}]}]}
